The source of these data is patent US20080125495A1, “Ameliorant For Renal Insufficiency” (MEIJI DAIRIES CORPORATION, priority 2004, published 2008).

The subject of the test is diabetes model rats. Kind of test: Renal dysfunction parameters in STZ-induced diabetes model rats (kidney weight, serum creatinine, serum urea nitrogen, MDA in kidney). In kind it is in vivo, SD rats. As to the method: To 8 weeks old male SD rats, 50 mg/kg of STZ (streptozotocin, manufactured by Wako Pure Chemical Industries, Ltd.) was intraperitoneally administered, thereby inducing diabetes. The diabetes model rats were divided into four groups: as therapeutic groups, 2,4,4-trimethyl-3(15-hydroxypentadecyl)-2-cyclohexen-1-one ([…]) synthesized by a method described in JP-A-2000-297034 was intraperitoneally administered once a day continuously for 4 or 8 weeks; and as controls, a non-therapeutic group with diabetes alone (Diabetic Control) and a control group without treatment were prepared. After 4 or 8 weeks, serum and both kidneys were removed from the rats. The right kidney was stored in a frozen state and the left kidney was subjected to formalin fixation.
Increase of kidney weight, elevation of serum creatinine level, and increase of MDA in kidney may be observed by renal dysfunction caused by diabetes.

The mark [1] stands for this setting: 2 mg/kg i.p. once a day, 4 weeks after STZ administration.
[2] abbreviates: 2 mg/kg i.p. once a day, 8 weeks after STZ administration.
Where [3] appears, read: 8 mg/kg i.p. once a day, 4 weeks after STZ administration.
Where [4] appears, read: 8 mg/kg i.p. once a day, 8 weeks after STZ administration.
[5] abbreviates: 8 mg/kg, eighth week after STZ administration.
Where [6] appears, read: 8 mg/kg, fourth week after STZ administration.

For `CC1=C(CCCCCCCCCCCCCCCO)C(C)(C)CCC1=O` [Compound 1, 2,4,4-trimethyl-3(15-hydroxypentadecyl)-2-cyclohexen-1-one], the “increase of MDA in kidney (in words)” value (2 mg/kg) is “markedly suppressed” and the “increase of MDA in kidney (in words)” value (8 mg/kg) was “markedly suppressed”. For the same compound, the Serum creatinine under setting [1] is 2.354 ± 0.254 mg/dL, the Serum creatinine under setting [2] is on record as 2.504 ± 0.253 mg/dL, the Serum creatinine under setting [3] is 1.004 ± 0.118 mg/dL and the Serum creatinine under setting [4] came to 1.836 ± 0.228 mg/dL. Also, the Serum urea nitrogen under setting [1] came to 51.00 ± 3.78 mg/dL, the Serum urea nitrogen under setting [2] was determined as 60.78 ± 5.34 mg/dL, the Serum urea nitrogen under setting [3] was found to be 41.76 ± 3.60 mg/dL and the Serum urea nitrogen under setting [4] came out at 53.69 ± 2.97 mg/dL. Besides, the Weight of kidney runs as follows: under setting [1], 1.33 ± 0.05 g; under setting [2], 1.59 ± 0.04 g; under setting [3], 1.27 ± 0.07 g; under setting [4], 1.33 ± 0.05 g. Further, the “elevation of serum creatinine level (in words)” value is given as “tendency of the suppression” (4 mg/kg, eighth week after STZ administration); “markedly suppressed” under setting [5]; “markedly suppressed” under setting [6]. Further, the “increase of kidney weight (in words)” value under setting [5] is “markedly suppressed” and the “increase of kidney weight (in words)” value (rats to which the compound was administered, fourth week after STZ administration) was “suppressed”. Moreover, the “elevation of serum urea nitrogen (in words)” value under setting [6] is listed as “markedly suppressed”.
